Consider 15 compounds from patent US20230143612A1 (Arbutus Biopharma Corporation, priority 2020, published 2023).

By IC50 is commonly meant the concentration at which inhibition is half-maximal. Read a high IC50 as lower potency.

Sequence of PD-L1 His protein / PD-1 Fc protein (Q9NZQ7 19-238 limits assumed): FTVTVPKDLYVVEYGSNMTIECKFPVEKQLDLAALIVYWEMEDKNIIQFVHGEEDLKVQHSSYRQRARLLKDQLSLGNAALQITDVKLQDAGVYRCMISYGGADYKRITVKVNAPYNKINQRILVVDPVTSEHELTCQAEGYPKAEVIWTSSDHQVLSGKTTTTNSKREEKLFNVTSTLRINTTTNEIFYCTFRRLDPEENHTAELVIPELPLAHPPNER

The test addresses PD-L1 His protein / PD-1 Fc protein (Homo sapiens, UniProt Q9NZQ7). Kind of test: HTRF Assay (PD-1/PD-L1 interaction). The test is classed as binding. Conditions: PD-L1 His 6 nM, PD-1 Fc 6 nM. A digest of the protocol: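 HTRF: PD-L1 His (6 nM final), compound (3-fold dilutions, 20 μM to 0.001 μM final) and PD-1 Fc (6 nM final) preincubated 15 min at room temperature. Anti-human IgG-XL665 and anti-6HIS Tb cryptate (mixed at 6.7 nM and 0.35 nM) then added for 1 h at room temperature before reading.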
(In TR-FRET formats the signal depends on donor and acceptor labels being close together.)
Consider `COc1nc(-c2cccc(-c3cccc(-c4ccn5c(=O)c(CN[C@@H](C)C(N)=O)cnc5c4)c3Cl)c2Cl)ccc1CNC[C@@H]1CCC(=O)N1` [Example 260, (2S)-2-[[8-[2-Chloro-3-[2-chloro-3-[6-methoxy-5-[[[(2S)-5-oxopyrrolidin-2-yl]methylamino]methyl]-2-pyridyl]phenyl]phenyl]-4-oxo-pyrido[1,2-a]pyrimidin-3-yl]methylamino]propenamide], for which the midpoint of inhibition, the IC50, lay at 0.1 nM. `CNC(=O)C[C@H](O)CNCc1cnc2cc(-c3cccc(-c4cccc(-c5cc(F)c(CNC[C@@H]6CCC(=O)N6)c(OC)n5)c4Cl)c3Cl)ccn2c1=O` [Example 293, (3S)-4-[[8-[2-Chloro-3-[2-chloro-3-[4-fluoro-6-methoxy-5-[[[(2S)-5-oxopyrrolidin-2-yl]methylamino]methyl]-2-pyridyl]phenyl]phenyl]-4-oxo-pyrido[1,2-a]pyrimidin-3-yl]methylamino]-3-hydroxy-N-methyl-butanamide]: the midpoint of inhibition, the IC50, lay at 0.1 nM.

The compound `COc1nc(-c2cccc(-c3cccc(-c4ccn5c(=O)c(CNC[C@@H]6CCC(=O)N6)cnc5c4)c3Cl)c2Cl)ccc1CNC[C@@H](C)O` [Example 198, 8-(2,2′-Dichloro-3′-(5-((((R)-2-hydroxypropyl)amino)methyl)-6-methoxypyridin-2-yl)-[1,1′-biphenyl]-3-yl)-3-(((((S)-5-oxopyrrolidin-2-yl)methyl)amino)methyl)-4H-pyrido[1,2-a]pyrimidin-4-one] yielded an IC50 of 0.3 nM. The same measure for `COc1nc(-c2cccc(-c3cccc(-c4ccn5c(=O)c(C6=NCC(O)CN6)cnc5c4)c3Cl)c2Cl)ccc1CNC[C@@H]1CCC(=O)N1` (stereo partly drawn) [Example 161, 8-(2,2′-Dichloro-3′-(6-methoxy-5-(((((S)-5-oxopyrrolidin-2-yl)methyl)amino)methyl)pyridin-2-yl)-[1,1′-biphenyl]-3-yl)-3-(5-hydroxy-1,4,5,6-tetrahydropyrimidin-2-yl)-4H-pyrido[1,2-a]pyrimidin-4-one]: 0.1 nM; for `COc1nc(-c2cccc(-c3cccc(-c4ccc5c(n4)N(C)CCC5NC[C@@H]4CCC(=O)N4)c3Cl)c2Cl)ccc1CNC[C@@H]1CCC(=O)N1` (single isomer, unassigned) [Example 53]: 1.7 nM; for `COc1nc(-c2cccc(-c3cccc(-c4ccn5c(=O)c(CNC[C@@H]6CCC(=O)N6)cnc5c4)c3Cl)c2Cl)ccc1CN[C@@H](CO)C(=O)O` [Example 114, ((6-(2,2′-Dichloro-3′-(4-oxo-3-(((((S)-5-oxopyrrolidin-2-yl)methyl)amino)methyl)-4H-pyrido[1,2-a]pyrimidin-8-yl)-[1,1′-biphenyl]-3-yl)-2-methoxypyridin-3-yl)methyl)-L-serine]: 0.6 nM.

`COc1nc(-c2cccc(-c3cccc(-c4cc5c(=O)n(C)c(CNC[C@@H]6CCO6)nn5c4)c3Cl)c2Cl)ccc1CNC[C@@H]1CCC(=O)N1` [Example 472, 6-[2-Chloro-3-[2-chloro-3-[6-methoxy-5-[[[(2S)-5-oxopyrrolidin-2-yl]methylamino]methyl]-2-pyridyl]phenyl]phenyl]-3-methyl-2-[[[(2S)-oxetan-2-yl]methylamino]methyl]pyrrolo[2,1-f][1,2,4]triazin-4-one] registered a 50% inhibitory concentration (IC50) of 400 nM. The same measure for `COc1nc(-c2cccc(-c3cccc(-c4ccn5c(=O)c(CNC[C@@H]6CCC(=O)N6)cnc5c4)c3Cl)c2Cl)ccc1CN1CC(C(=O)O)C1` [Example 119, (S)-1-((6-(2,2′-Dichloro-3′-(4-oxo-3-((((5-oxopyrrolidin-2-yl)methyl)amino)methyl)-4H-pyrido[1,2-a]pyrimidin-8-yl)-[1,1′-biphenyl]-3-yl)-2-methoxypyridin-3-yl)methyl)azetidine-3-carboxylic acid]: 0.3 nM; for `Cc1c(-c2ccn3c(=O)c(CNC[C@@H]4CCC(=O)N4)cnc3c2)cccc1-c1cccc(-c2ccc3c(c2)CC(NC(=O)CN)C3)c1Cl` (mixture of isomers) [Example 43, 2-Amino-N-(5-(2-chloro-2′-methyl-3′-(4-oxo-3-(((((S)-5-oxopyrrolidin-2-yl)methyl)amino)methyl)-4H-pyrido[1,2-a]pyrimidin-8-yl)-[1,1′-biphenyl]-3-yl)-2,3-dihydro-1H-inden-2-yl)acetamide]: 270 nM.

`COc1nc(-c2cccc(-c3cccc(-c4ccc5c(n4)c(Cl)c(CNC[C@@H]4CCC(=O)N4)n5C)c3Cl)c2Cl)ccc1CNC[C@@H]1CCC(=O)N1` [Example 366, (S)-5-((((3-Chloro-5-(2,2′-dichloro-3′-(6-methoxy-5-(((((S)-5-oxopyrrolidin-2-yl)methyl)-amino)methyl)-pyridin-2-yl)-[1,1′-biphenyl]-3-yl)-1-methyl-1H-pyrrolo[3,2-b]pyridin-2-yl)methyl)amino)-methyl)-pyrrolidin-2-one] yielded a 50% inhibitory concentration (IC50) of 1.5 nM. With `COC(=O)C1CN=C(c2cnc3cc(-c4cccc(-c5cccc(-c6ccc(CNC[C@@H]7CCC(=O)N7)c(OC)n6)c5Cl)c4Cl)ccn3c2=O)N1` (stereo partly drawn) [Example 171, Methyl 2-(8-(2,2′-dichloro-3′-(6-methoxy-5-(((((S)-5-oxopyrrolidin-2-yl)methyl)amino)methyl)pyridin-2-yl)-[1,1′-biphenyl]-3-yl)-4-oxo-4H-pyrido[1,2-a]pyrimidin-3-yl)-4,5-dihydro-1H-imidazole-5-carboxylate], the IC50 was 0.2 nM. Next, `COc1nc(-c2cccc(-c3cccc(-c4cc(F)c(CNC[C@@H]5CCC(=O)N5)c(OC)n4)c3Cl)c2Cl)ccc1CNC[C@@H]1CCC(=O)N1` [Example 232, (S)-5-((((6-(2,2′-dichloro-3′-(4-fluoro-6-methoxy-5-(((((S)-5-oxopyrrolidin-2-yl)methyl)amino)methyl)pyridin-2-yl)-[1,1′-biphenyl]-3-yl)-2-methoxypyridin-3-yl)methyl)amino)methyl)pyrrolidin-2-one]: 63 nM; `O=C1CC[C@@H](CNCc2nc3cc(-c4cccc(-c5cccc(-c6ccn7c(Cl)c(CNC[C@@H]8CCC(=O)N8)nc7c6)c5Cl)c4Cl)ccn3c2Cl)N1` [Example 430, (5S)-5-[[[3-Chloro-7-[2-chloro-3-[2-chloro-3-[3-chloro-2-[[[(2S)-5-oxopyrrolidin-2-yl]methylamino]methyl]imidazo[1,2-a]pyridin-7-yl]phenyl]phenyl]imidazo[1,2-a]pyridin-2-yl]methylamino]methyl]pyrrolidin-2-one]: 170 nM; `COc1nc(-c2cccc(-c3cccc(-c4ccc5nc(CNC[C@@H](O)CC(=O)N(C)C)cn5n4)c3Cl)c2Cl)ccc1CNC[C@@H]1CCC(=O)N1` [Example 355, (3S)-4-[[6-[2-Chloro-3-[2-chloro-3-[6-methoxy-5-[[[(2S)-5-oxopyrrolidin-2-yl]methylamino]methyl]-2-pyridyl]phenyl]phenyl]imidazo[1,2-b]pyridazin-2-yl]methylamino]-3-hydroxy-N,N-dimethyl-butanamide]: 0.1 nM. The same measure for `Cc1c(COc2cc(OCc3cncc(C#N)c3)c(CNCCO)cc2Cl)cccc1-c1cccc(-c2ccn3c(=O)c(CNCCO)cnc3c2)c1` [Example 4, 5-((4-Chloro-2-(((2-hydroxyethyl)amino)methyl)-5-((3′-(3-(((2-hydroxyethyl)amino)methyl)-4-oxo-4H-pyrido[1,2-a]pyrimidin-8-yl)-2-methyl-[1,1′-biphenyl]-3-yl)methoxy)phenoxy)methyl)nicotinonitrile]: 2 nM.
